Results on eleven compounds are retold here after US20150133512A1, “N-ARYLTRIAZOLE COMPOUNDS AS LPAR ANTAGONISTS” (Hoffmann-La Roche Inc,, priority 2012, published 2015).

One test addresses T1, LPA3 (Homo sapiens, UniProt Q9UBY5).
T1 sequence (Q9UBY5 1-353): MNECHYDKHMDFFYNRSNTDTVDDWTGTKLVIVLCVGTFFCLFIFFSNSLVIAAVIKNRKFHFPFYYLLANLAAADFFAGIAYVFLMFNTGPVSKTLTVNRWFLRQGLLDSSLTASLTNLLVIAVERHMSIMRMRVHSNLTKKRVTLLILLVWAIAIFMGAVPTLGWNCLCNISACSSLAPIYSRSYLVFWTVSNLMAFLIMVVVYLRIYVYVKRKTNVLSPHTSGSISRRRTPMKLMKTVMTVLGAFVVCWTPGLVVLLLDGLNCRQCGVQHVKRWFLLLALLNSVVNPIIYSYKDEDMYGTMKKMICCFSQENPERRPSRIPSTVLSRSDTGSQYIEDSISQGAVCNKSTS
As to the kind of experiment: Calcium flux assay using FLIPR, LPA3 antagonist activity. The following applies: for IC50: antagonist activity. The format is cell-based. As to the method: (§1) Calcium Flux Assay Using Fluorometric Imaging Plate Reader (FLIPR)
(§2) Dye Loading and Assay: Loading Buffer (FLIPR Calcium-4, Molecular Devices) was prepared by dissolving the contents of one bottle into 100 mL Hank's Balanced Salt Solution containing 20 mM HEPES and 2.5 mM probenecid. Plates were loaded onto Biotek plate washer and growth media was removed and replaced with 20 μL of Hank's Balanced Salt Solution containing 20 mM HEPES and 2.5 mM probenecid, followed by 25 μL of Loading Buffer. The plates were then incubated for 30 minutes at 37° C.
During the incubation, test compounds were prepared by adding 90 μL of HBSS/20 mM HEPES/0.1% BSA buffer to 2 μL of serially diluted compounds. To prepare serial dilutions, 10 mM stocks of compounds were prepared in 100% DMSO. The compound dilution plate was set up as follows: well #1 received 29 μL of stock compound and 31 μL DMSO; wells 2-10 received 40 μL of DMSO; mixed and transferred 20 μL of solution from well #1 into well #2; continued with 1:3 serial dilutions out 10 steps; transferred 2 μL of diluted compound into duplicate wells of 384 well “assay plate” and then added the 90 μL of buffer.
After incubation, both the cell and “assay” plates were brought to the FLIPR and 20 μL of the diluted compounds were transferred to the cell plates by the FLIPR. Compound addition was monitored by FLIPR to detect any agonist activity of the compounds. Plates were then incubated for 30 minutes at room temperature protected from light. After the incubation, plates were returned to the FLIPR and 20 μL of 4.5× concentrated agonist was added to the cell plates. During the assay, fluorescence readings were taken simultaneously from all 384 wells of the cell plate every 1.5 seconds. Five readings were taken to establish a stable baseline, then 20 μL of sample was rapidly (30 μL/sec) and simultaneously added to each well of the cell plate. The fluorescence was continuously monitored before, during and after sample addition for a total elapsed time of 100 seconds. Responses (increase in peak fluorescence) in each well following agonist addition was determined. The initial fluorescence reading from each well, prior to ligand stimulation, was used as zero baseline value for the data from that well. The responses were expressed as % inhibition of the buffer control.
On the technique in general: A change in cytosolic calcium serves as a functional read-out for many receptors and channels.

In test [1] the target is human recombinant LPA1 Lysophospholipid receptor (Homo sapiens, UniProt Q92633). As to the kind of experiment: Calcium flux assay using FLIPR, LPA1 antagonist activity. The following applies: for IC50: ChemiScreen Calcium-optimized stable cell line, antagonist mode, inhibition of agonist-induced calcium flux. It counts as cell-based. The procedure:
as §1
Cell Culture Conditions: The ChemiScreen Calcium-optimized stable cell line containing the human recombinant LPA1 Lysophospholipid receptor was purchased from Chemicon International, Inc./Millipore. The cells were cultured in DMEM-high glucose supplemented with 10% fetal bovine serum, 2 mM glutamine, 100 U/mL penicillin/100 μg/mL streptomycin, 1× non-essential amino acids, 10 mM HEPES and 0.25 mg/mL Geneticin. Cells were harvested with trypsin-EDTA and counted using ViaCount reagent. The cell suspension volume was adjusted to 2.0×10^5 cells/mL with complete growth media. Aliquots of 50 μL were dispensed into 384 well black/clear tissue culture treated plates (BD) and the microplates were placed in a 37° C. incubator overnight. The following day plates were used in the assay.
as §2
During the incubation, test compounds were prepared by adding 90 μL of HBSS/20 mM HEPES/0.1% BSA buffer to 2 μL of serially diluted compounds. To prepare serial dilutions, 10 mM stocks of compounds were prepared in 100% DMSO.
After incubation, both the cell and “assay” plates were brought to the FLIPR and 20 μL of the diluted compounds were transferred to the cell plates by the FLIPR. Compound addition was monitored by FLIPR to detect any agonist activity of the compounds. Plates were then incubated for 30 minutes at room temperature protected from light. […] During the assay, fluorescence readings were taken simultaneously from all 384 wells of the cell plate every 1.5 seconds. Five readings were taken to establish a stable baseline, then 20 μL of sample was rapidly (30 μL/sec) and simultaneously added to each well of the cell plate. The fluorescence was continuously monitored before, during and after sample addition for a total elapsed time of 100 seconds. Responses (increase in peak fluorescence) in each well following agonist addition was determined. The initial fluorescence reading from each well, prior to ligand stimulation, was used as zero baseline value for the data from that well. The responses were expressed as % inhibition of the buffer control.

The term IC50 denotes the midpoint of a concentration-inhibition curve. As usually defined, the inhibition is the drop in the measured response relative to a control, in per cent.

Sequence of human recombinant LPA1 Lysophospholipid receptor (Q92633 whole entry): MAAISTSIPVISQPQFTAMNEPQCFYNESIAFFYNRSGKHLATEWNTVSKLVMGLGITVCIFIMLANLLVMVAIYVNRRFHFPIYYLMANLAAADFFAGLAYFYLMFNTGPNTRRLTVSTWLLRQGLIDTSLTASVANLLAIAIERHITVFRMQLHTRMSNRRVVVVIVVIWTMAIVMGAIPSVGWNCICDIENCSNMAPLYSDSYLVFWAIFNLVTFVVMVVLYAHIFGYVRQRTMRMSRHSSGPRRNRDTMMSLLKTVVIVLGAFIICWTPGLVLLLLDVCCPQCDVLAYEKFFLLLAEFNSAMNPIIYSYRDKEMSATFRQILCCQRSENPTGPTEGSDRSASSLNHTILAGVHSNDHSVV

On to `Cc1nnn(-c2ccc(-c3ccc(C4(C(=O)O)CCC4)cc3)cc2)c1NC(=O)O[C@H](C)c1ccccc1` (single isomer, unassigned) [Example 32], for which the IC50 on LPA3 is > 30 µM; in test [1], 0.174 µM.
The corresponding values for `Cc1nnn(-c2ccc(-c3ccc(C4(C(=O)O)CC4)cc3)cc2)c1NC(=O)O[C@H](C)c1ccccc1` [Example 1, 1-{4′-[4-Methyl-5-((R)-1-phenyl-ethoxycarbonylamino)-[1,2,3]triazol-1-yl]-biphenyl-4-yl}-cyclopropanecarboxylic acid] are > 30 µM and 0.025 µM.
`Cc1nnn(-c2ccc(-c3ccc(CC(=O)O)cc3)cc2)c1NC(=O)O[C@H](C)c1ccccc1` [Example 2, {4′-[4-Methyl-5-((R)-1-phenyl-ethoxycarbonylamino)-[1,2,3]triazol-1-yl]-biphenyl-4-yl}-acetic acid]: the half-inhibitory concentration (IC50) (on LPA3; in test [1]) was > 30 µM throughout. For the same compound, in test [1] (@ 30 μM), the inhibition at 30 µM is 40%.
Consider `Cc1c(NC(=O)O[C@H](C)c2ccccc2)nnn1-c1ccc(-c2ccc(C3(C(=O)O)CC3)cc2)cc1` [Example 3, 1-{4′-[5-Methyl-4-((R)-1-phenyl-ethoxycarbonylamino)-[1,2,3]triazol-1-yl]-biphenyl-4-yl}-cyclopropanecarboxylic acid], for which the IC50 (on LPA3; in test [1]) was > 30 µM each time.
Take `Cc1c(NC(=O)O[C@H](C)c2ccccc2)nnn1-c1ccc(-c2ccc(CC(=O)O)cc2)cc1` [Example 4, {4′-[5-Methyl-4-((R)-1-phenyl-ethoxycarbonylamino)-[1,2,3]triazol-1-yl]-biphenyl-4-yl}-acetic acid]: the IC50 (on LPA3; in test [1]) was > 30 µM in each case.
For the compound `Cc1nnn(-c2ccc(-c3ccc(C4(C(=O)O)CC4)cc3)cc2)c1NC(=O)O[C@H](C)c1ccccc1F` [Example 5, 1-(4′-{5-[(R)-1-(2-Fluoro-phenyl)-ethoxycarbonylamino]-4-methyl-[1,2,3]triazol-1-yl}-biphenyl-4-yl)-cyclopropanecarboxylic acid], the half-inhibitory concentration (IC50) on LPA3 was > 30 µM.
For the compound `Cc1nnn(-c2ccc(-c3ccc(C4(C(=O)O)CC4)cc3)cc2)c1NC(=O)O[C@H](C)c1ccccc1C(F)(F)F` [Example 6, 1-(4′-{4-Methyl-5-[(R)-1-(2-trifluoromethyl-phenyl)-ethoxycarbonylamino]-[1,2,3]triazol-1-yl}-biphenyl-4-yl)-cyclopropanecarboxylic acid], the inhibition at 30 µM at LPA3 (@ 30 μM) is 55.2%. Further, the results for the half-maximal inhibitory concentration (IC50) (on LPA3; in test [1]) were 25.9 µM and 0.112 µM, respectively.
For the compound `Cc1nnn(-c2ccc(-c3ccc(C4(C(=O)O)CC4)cc3)cc2)c1NC(=O)O[C@H](C)c1cccc(C(F)(F)F)c1` [Example 7, 1-(4′-{4-Methyl-5-[(R)-1-(3-trifluoromethyl-phenyl)-ethoxycarbonylamino]-[1,2,3]triazol-1-yl}-biphenyl-4-yl)-cyclopropanecarboxylic acid], the half-inhibitory concentration (IC50) on LPA3 is 6.86 µM; in test [1], 0.174 µM.
For `Cc1nnn(-c2ccc(-c3ccc(C4(C(=O)O)CC4)cc3)cc2)c1NC(=O)O[C@@H]1CCc2ccccc21` [Example 8, 1-{4′-[5-((R)-Indan-1-yloxycarbonylamino)-4-methyl-[1,2,3]triazol-1-yl]-biphenyl-4-yl}-cyclopropanecarboxylic acid], in that order: > 30 µM and > 30 µM.
The corresponding values for `Cc1nnn(-c2ccc(-c3ccc(C4(C(=O)O)CC4)cc3)cc2)c1NC(=O)O[C@H](C)C(C)C` [Example 9, 1-{4′-[5-((R)-1,2-Dimethyl-propoxycarbonylamino)-4-methyl-[1,2,3]triazol-1-yl]-biphenyl-4-yl}-cyclopropanecarboxylic acid] are > 30 µM and 0.217 µM.
For the compound `Cc1nnn(-c2ccc(-c3ccc(C4(c5nnn[nH]5)CC4)cc3)cc2)c1NC(=O)O[C@H](C)c1ccccc1` [Example 29, (R)-1-Phenyl-ethyl-1-(4′-(1-(1H-tetrazol-5-yl)cyclopropyl)biphenyl-4-yl)-4-methyl-1H-1,2,3-triazol-5-ylcarbamate], at LPA3, the 50% inhibitory concentration (IC50) is > 30 µM.
